Data published in ChEMBL document CHEMBL4619743, “Synthetic approaches towards bedaquiline and its derivatives” (2020).
Converted amounts (≈) assume the structure as drawn.

Tests used:
[1] = test system: Mycobacterium tuberculosis; assay: Antimycobacterial activity against Mycobacterium tuberculosis H37Rv; format: functional
[2] = test system: Mycobacterium tuberculosis; assay: Antimycobacterial activity against Mycobacterium tuberculosis; format: functional

Row | SMILES | MIC90 [1] | MIC90 [2]
1 | COc1cc2ccc(Br)cc2cc1[C@@H](c1ccccc1)[C@@](O)(CCN(C)C)c1cccc2ccccc12 | 0.59 µg/mL (≈ 1.06 µM) | 
2 | COc1cc2ccc(Br)cc2cc1[C@@H](c1ccccc1)[C@@](O)(CCN(C)C)c1cccc(Br)c1 | 0.01 µg/mL (≈ 0.0171 µM) | 
3 | COc1cc2ccc(Br)cc2cc1[C@@H]1O[C@H]1CO | 0.11 µg/mL (≈ 0.356 µM) | 0.13 to 0.5 µg/mL (≈ 0.42 to 1.62 µM)
